Experimental data from US4476298A, “Erythromycin A derivatives” (Taisho Pharmaceutical Co., Ltd., priority 1981, dated 1984).
Values after ≈ are worked out from the molar mass of the structure shown. Read-outs that look alike come from different tables or passages of the source.

What was measured:
Experiment in all cases: antibacterial activity (MIC), agar plate dilution method
Assay type in all cases: cell-based
[1] = system: Bacillus subtilis EM-R; details: for MIC: Bacillus subtilis, read-out: MIC value (minimal inhibitory concentration), Bacillus subtilis EM-R, strain resistant to erythromycin
Method: (§1) Erythromycin A was used as a control, and the compounds of formula I derived from Fractions A, B and C were tested for antibacterial activity against various bacteria by the agar plate dilution method.

[2] = system: Micrococcus luteus NIHJ; details: for MIC: read-out: MIC value (minimal inhibitory concentration)
Method: as §1

[3] = system: Staphylococcus aureus FDA 209 P; details: for MIC: Staphylococcus aureus
Method: as §1

[4] = system: Staphylococcus aureus TPR 13; details: for MIC: Staphylococcus aureus
Method: as §1

[5] = system: Staphylococcus aureus TPR 23; details: for MIC value (minimal inhibitory concentration): Staphylococcus aureus TPR 23, strain resistant to erythromycin; for MIC: Staphylococcus aureus
Method: as §1

[6] = system: Staphylococcus aureus TPR 25; details: for MIC: Staphylococcus aureus
Method: as §1

[7] = system: Staphylococcus aureus smith; details: for MIC: Staphylococcus aureus, read-out: MIC value (minimal inhibitory concentration)
Method: as §1

[8] = system: Staphylococcus epidermidis IID 866; details: for MIC: Staphylococcus epidermidis
Method: as §1

[9] = system: Streptococcus faecalis ATCC 8043; details: for MIC: Enterococcus faecalis
Method: as §1

[10] = Micrococcus luteus NIHJ, agar plate dilution
[11] = FDA209, Staphylococcus aureus FDA 209 P, agar plate dilution, read-out: MIC value (minimal inhibitory concentration)
[12] = TPR13, Staphylococcus aureus TPR 13, strain resistant to erythromycin, agar plate dilution, read-out: MIC value (minimal inhibitory concentration)
[13] = TPR25, Staphylococcus aureus TPR 25, strain resistant to erythromycin, agar plate dilution, read-out: MIC value (minimal inhibitory concentration)
[14] = Staphylococcus aureus smith, agar plate dilution
[15] = IID866, Staphylococcus epidermidis IID 866, agar plate dilution, read-out: MIC value (minimal inhibitory concentration)
[16] = ATCC8043, Streptococcus faecalis ATCC 8043, agar plate dilution, read-out: MIC value (minimal inhibitory concentration)

| Structure (SMILES) | MIC [1] [µg/mL] | MIC [2, 10] [µg/mL] | MIC [3, 11] [µg/mL] | MIC [4, 12] [µg/mL] | MIC value (minimal inhibitory concentration) ([5]; agar plate dilution) [µg/mL] | MIC [6, 13] [µg/mL] | MIC [7, 14] [µg/mL] | MIC [8, 15] [µg/mL] | MIC [9, 16] [µg/mL] | also measured |
| --- | --- | --- | --- | --- | --- | --- | --- | --- | --- | --- |
| CC[C@H]1OC(=O)[C@H](C)[C@@H](O[C@H]2C[C@@](C)(OC)[C@@H](OC)[C@H](C)O2)[C@H](C)[C@@H](O[C@@H]2O[C@H](C)C[C@H](N(C)C)[C@H]2O)[C@@]2(C)C[C@@H](C)C(OC)(O2)[C@H](C)[C@H]2OC(=O)O[C@@]21C (single isomer, unassigned) [A] | 0.4 (≈ 0.508 µM) | < 0.05 | ≤ 0.05 | 1.6 (≈ 2.03 µM) | 3.1 (≈ 3.93 µM) | 1.6 (≈ 2.03 µM) | 0.4 (≈ 0.508 µM) | 0.4 (≈ 0.508 µM) | ≤ 0.05 | – |
| CC[C@H]1OC(=O)[C@H](C)[C@@H](O[C@H]2C[C@@](C)(OC)[C@@H](OC)[C@H](C)O2)[C@H](C)[C@@H](O[C@@H]2O[C@H](C)C[C@H](N(C)C)[C@H]2O)[C@@]2(C)C[C@@H](C)C(OC)(O2)[C@H](C)[C@H]2OC(=O)O[C@@]21C (single isomer, unassigned) [B] | – | – | – | – | 6.25 (≈ 7.93 µM) | – | – | – | – | MIC value (minimal inhibitory concentration) ([1]; Bacillus subtilis EM-R, strain resistant to erythromycin): 0.8 µg/mL (≈ 1.02 µM); MIC value (minimal inhibitory concentration) [2, 10]: < 0.05 µg/mL; MIC value (minimal inhibitory concentration) ([3]; Staphylococcus aureus FDA 209 P, agar plate dilution): 0.1 µg/mL (≈ 0.127 µM); MIC value (minimal inhibitory concentration) ([4]; Staphylococcus aureus TPR 13, strain resistant to erythromycin, agar plate dilution): 3.1 µg/mL (≈ 3.93 µM); MIC value (minimal inhibitory concentration) ([6]; Staphylococcus aureus TPR 25, strain resistant to erythromycin, agar plate dilution): 3.1 µg/mL (≈ 3.93 µM); MIC value (minimal inhibitory concentration) [7, 14]: 0.8 µg/mL (≈ 1.02 µM); MIC value (minimal inhibitory concentration) ([8]; Staphylococcus epidermidis IID 866, agar plate dilution): 0.8 µg/mL (≈ 1.02 µM); MIC value (minimal inhibitory concentration) ([9]; Streptococcus faecalis ATCC 8043, agar plate dilution): 0.1 µg/mL (≈ 0.127 µM) |
| CC[C@H]1OC(=O)[C@H](C)[C@@H](O[C@H]2C[C@@](C)(OC)[C@@H](OC)[C@H](C)O2)[C@H](C)[C@@H](O[C@@H]2O[C@H](C)C[C@H](N(C)C)[C@H]2O)[C@@]2(C)C[C@@H](C)C(O)(O2)[C@H](C)[C@H]2OC(=O)O[C@@]21C (single isomer, unassigned) [C] | 0.4 (≈ 0.517 µM) | < 0.05 | ≤ 0.05 | 0.8 (≈ 1.03 µM) | – | 0.8 (≈ 1.03 µM) | 0.2 (≈ 0.258 µM) | 0.4 (≈ 0.517 µM) | ≤ 0.05 | MIC ([5]; TPR23, Staphylococcus aureus TPR 23, strain resistant to erythromycin, agar plate dilution, read-out: MIC value (minimal inhibitory concentration)): 3.1 µg/mL (≈ 4.01 µM) |
| CC[C@H]1OC(=O)[C@H](C)[C@@H](O[C@H]2C[C@@](C)(OC)[C@@H](O)[C@H](C)O2)[C@H](C)[C@@H](O[C@@H]2O[C@H](C)C[C@H](N(C)C)[C@H]2O)[C@](C)(O)C[C@@H](C)C(=O)[C@H](C)[C@@H](O)[C@]1(C)O [Erythromycin A] | > 100 | – | – | – | – | – | – | – | – | MIC ([2]; Micrococcus luteus): < 0.05 µg/mL; MIC ([3]; FDA209, read-out: MIC value (minimal inhibitory concentration)): ≤ 0.05 µg/mL; MIC ([4]; TPR13, read-out: MIC value (minimal inhibitory concentration)): 25 µg/mL (≈ 34.1 µM); MIC ([5]; TPR23, read-out: MIC value (minimal inhibitory concentration)): 100 µg/mL (≈ 136 µM); MIC ([6]; TPR25, read-out: MIC value (minimal inhibitory concentration)): 50 µg/mL (≈ 68.1 µM); MIC [7]: 0.2 µg/mL (≈ 0.273 µM); MIC ([8]; IID866, read-out: MIC value (minimal inhibitory concentration)): 0.4 µg/mL (≈ 0.545 µM); MIC ([9]; ATCC8043, read-out: MIC value (minimal inhibitory concentration)): ≤ 0.05 µg/mL |
